Measured values as given in publication PMC12648313, “Enhancing the Efficacy, Utility, and Throughput of the Transcription Block Survival Peptide Library Screening Platform” (JACS Au, 2025).

Assays:
ATF2-CRE DNA interaction = molecular target: T1, ATF2-CRE DNA interaction (Homo sapiens, UniProt P15336); assay: FP antagonism assay ATF2-CRE; format: biochemical; details: up to 12 μM ATF2W
T1 construct: human ATF2 bZIP domain spans from Asp352 to Gln410; made in house; host or cells: chemical synthesis (Fmoc solid-phase peptide synthesis), no expression host
T1 sequence (P15336 352-410): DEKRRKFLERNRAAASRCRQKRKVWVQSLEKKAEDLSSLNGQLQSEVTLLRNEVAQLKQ
Procedure: (§1) Fluorescence polarization (FP) was next utilized to confirm that ATF2W binding induces the intended antagonism of the ATF2-CRE interaction. […] To assess ATF2W antagonism, 625 nM ATF2, which corresponded to 80% of the maximum DNA binding, was incubated with CRE DNA (10 nM) and varied concentrations of ATF2W (29 nM-12 μM). […] This represents a ∼ 3-fold selectivity for ATF2. […] As the peptide library was designed using established coiled coil interaction rules, it was expected that many sequences would bind the target.
(§2) (DMF). Deprotection was performed by addition of 0.75 mL 30% pyrrolidine into the coupling reaction. Peptides were acetylated at the N-terminus by a final reaction with 3x acetic anhydride, 4.5x diisopropylethylamine in DMF for one hour at room temperature. Incubation in a cleavage mixture (95% TFA, 2.5% triisopropylsilane, 2.5% H2O, 10 mL) for 4 h at room temperature cleaved the peptide from the resin and removed side chain protecting groups.
(§3) 2.5% DODT was added to the cleavage cocktail for ATF2. The resin was removed by filtration and cleaved peptides were precipitated in diethyl ether at -80°C and centrifuged.
(§4) This pellet was washed a further four times with diethyl ether before it was dried overnight at room temperature. […]

CREB1-CRE complex = molecular target: T2, CREB1-CRE complex (Homo sapiens, UniProt P16220); assay: FP antagonism assay CREB1-CRE; format: biochemical; details: FP IC50, CREB1-CRE vs ATF2-CRE
T2 construct: Ala283 to Asp341
T2 sequence (P16220 283-341 isoform P16220-1): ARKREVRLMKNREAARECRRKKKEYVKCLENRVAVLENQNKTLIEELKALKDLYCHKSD
Procedure: as §1, §2, §3, §4

DLX5/H-Box complex = assay: FP antagonism assay DLX5/H-Box; format: biochemical; details: FAM-H-Box DNA, over the concentration range tested
FAM-CRE DNA = assay: FP binding of ATF2W to CRE DNA; details: ATF2W 9 nM-10 μM, FAM-CRE DNA 10 nM, up to 1000x excess
Procedure: removed before peptide concentration determination.
Peptide samples were suspended in 20
Post-melt scans at 20°C confirmed the
Sequential 2 µL injections of ATF2W (50 µM)
Data from a control experiment whereby […]
errors are given as one standard deviation.
Fluorescence polarisation: Fluorescence polarisation was measured in a CLARIOstar […]
chloride, 5 mM MgCl2, 10 mM TCEP, pH 7.4 buffer. Palindromic FAM-CRE DNA oligo was […]
purchased from Merck: 5’[6FAM]- […]. 200 µM of the oligo was […]
prepared in water and then annealed by heating to 95°C for 10 minutes before cooling slowly to room temperature to give a 100 µM duplex stock. Samples containing 10 nM FAM-CRE and a serial dilution of ATF2 (12 nM-10 µM) were prepared and incubated at room temperature for 1 hour before transferring to the assay plate for measurement. Data were fit to a one site binding model. For antagonism experiments, the ATF2 concentration required for 80% response was selected. Samples containing 10 nM FAM-TRE, 625 nM ATF2 and a serial dilution of ATF2W (29 nM-12 µM) were prepared and incubated at room temperature for 2 hours before transferring to the assay plate for measurement. CREB1/CRE, cJun/TRE and DLX5/H-box DNA antagonism were determined by the equivalent experiments, using the FAM-CRE oligo above; FAM-TRE DNA oligoes: 5’-[6FAM]-[…], 5’- […]
[6FAM]-[…]; and palindromic FAM-H-Box oligo: 5’-[6FAM]- […]

In the case of “Ac-LEQQLEELAQENEELEKEAAELQQQIARLKNEVAKLENENKTLDREIKALQREYSHKSD-NH2 [ATF2W]”, the “ATF2-CRE antagonism at top concentrations” value (ATF2-CRE DNA interaction) is reported as “reducing the FP value to that of free DNA”, the “fold selectivity for ATF2 over CREB1” value (CREB1-CRE complex) is reported as ~3 -fold and the “antagonism of DLX5/H-Box interaction” value (DLX5/H-Box complex) is reported as “minimal antagonism”. For the same substance, the “interaction with CRE DNA” value (FAM-CRE DNA) was “does not interact with CRE DNA”.
